Patent US20050137259A1, “Insulin secretion potentiator” (Use- Techno Corporation, priority 2003, published 2005)

Tests used:
Assay type in all cases: in vivo, human
[1] = tested on: borderline diabetic patients; assay: Glucose tolerance test (75 g glucose), blood insulin level (IRI), double-blind crossover; conditions: 10 mg oral, 31 borderline diabetic patients, p<0.05
Procedure: A glucose tolerance test was performed after administration of corosolic acid or a placebo, in a double-blind crossover manner, and the blood insulin level (IRI: immunoreactive insulin) was assayed.
(§1) First, 31 borderline diabetic patients as test subjects were orally administered corosolic acid (10 mg, >99% purity) or a placebo, and blood was sampled immediately thereafter with the blood insulin level at that time designated as the value at 0 minutes. Immediately after blood sampling, 75 g of glucose was orally administered to each test subject to start a glucose tolerance test, and blood was sampled after periods of 30 minutes, 60 minutes, 90 minutes, 120 minutes and 180 minutes for measurement of the blood insulin level.
FIG. 1 is a graph showing the blood insulin levels during the glucose tolerance test. The horizontal axis represents time (min) after start of the glucose tolerance test, and the vertical axis represents IRI (μU/mL). In the graph, (a) is a case with administration of corosolic acid and (b) is a case with administration of the placebo.

[2] = tested on: borderline diabetic patients; assay: Glucose tolerance test (75 g glucose), blood glucose level (plasma glucose concentration), double-blind crossover; conditions: 10 mg oral, 35 borderline diabetic patients, p<0.05
Procedure: The following test was conducted to confirm that corosolic acid has a hypoglycemic effect. A glucose tolerance test was performed after administration of corosolic acid, banaba extract or a placebo, in a double-blind crossover manner, and the blood glucose level (plasma glucose concentration) was assayed.
as §1, with “35” for “31”, “purity), banaba extract (trade name: COROSOLIA M, product of Use Techno Corporation; administered at 10 mg of corosolic acid)” for “purity)”, “glucose” for “insulin”
FIG. 2 is a graph showing blood glucose levels during the glucose tolerance test. The horizontal axis represents time (min) after start of the glucose tolerance test, and the vertical axis represents plasma glucose concentration (mg/dL). In the graph, (c) is a case with administration of corosolic acid, (d) is a case with administration of banaba leaf extract and (e) is a case with administration of the placebo.

[3] = tested on: borderline diabetic patients; assay: Blood glucose and blood insulin levels after administration in the absence of glucose load (fasted), crossover double-blind; conditions: single 10 mg dose; for blood glucose level (G) / blood insulin level (I): fasted, no glucose load; for blood insulin level (I): unit assumed
Procedure: Three borderline diabetic patients (person, person and person) were instructed to fast from 8:00 pm (to ensure absence of glucose load), and were administered a placebo once or the test agent (corosolic acid) once at 9:00 am on the following day, after which the changes in blood glucose level and blood insulin level were measured. The participants were given absolutely no information regarding placebo or test agent (crossover, double-blind). The corosolic acid was administered in a single 10 mg dose, and each test was conducted twice.
FIG. 3 is a graph showing changes in blood glucose levels with administration of corosolic acid and a placebo in the absence of a glucose load, and FIG. 4 is a graph showing changes in blood insulin levels with administration of corosolic acid and a placebo in the absence of a glucose load.

[4] = 120 minutes after start of glucose tolerance test

C[C@H]1[C@H](C)CC[C@]2(C(=O)O)CC[C@]3(C)C(=CC[C@@H]4[C@@]5(C)C[C@@H](O)[C@H](O)C(C)(C)[C@@H]5CC[C@]43C)[C@H]12 [corosolic acid]
blood insulin level compared to placebo ([1]; 30 minutes after start of glucose tolerance test): significant increase | blood insulin level compared to placebo [1, 4]: significant drop | blood glucose level compared to placebo ([2]; 90 minutes after start of glucose tolerance test): significant decrease | blood glucose level compared to placebo [2, 4]: significant decrease | blood glucose levels, corosolic acid versus placebo ([3]; absence of glucose load, FIG. 3): no significant difference | blood insulin levels, corosolic acid versus placebo ([3]; absence of glucose load, FIG. 4): no significant difference | blood glucose level (G) ([3]; participant A, after 0 min): 110 mg/dL | blood insulin level (I) ([3]; participant A, after 0 min): 9 µU/mL | blood glucose level (G) ([3]; participant A, after 30 min): 104 mg/dL | blood insulin level (I) ([3]; participant A, after 30 min): 6.9 µU/mL | blood glucose level (G) ([3]; participant A, after 60 min): 107 mg/dL | blood insulin level (I) ([3]; participant A, after 60 min): 6.6 µU/mL | blood glucose level (G) ([3]; participant A, after 90 min): 104 mg/dL | blood insulin level (I) ([3]; participant A, after 90 min): 5.9 µU/mL | blood glucose level (G) ([3]; participant A, after 120 min): 104 mg/dL | blood insulin level (I) ([3]; participant A, after 120 min): 6.6 µU/mL | blood glucose level (G) ([3]; participant A, after 180 min): 102 mg/dL | blood insulin level (I) ([3]; participant A, after 180 min): 5.1 µU/mL | blood glucose level (G) ([3]; participant B, after 0 min): 144 mg/dL | blood insulin level (I) ([3]; participant B, after 0 min): 2.5 µU/mL | blood glucose level (G) ([3]; participant B, after 30 min): 143 mg/dL | blood insulin level (I) ([3]; participant B, after 30 min): 2.6 µU/mL | blood glucose level (G) ([3]; participant B, after 60 min): 147 mg/dL | blood insulin level (I) ([3]; participant B, after 60 min): 3 µU/mL | blood glucose level (G) ([3]; participant B, after 90 min): 149 mg/dL | blood insulin level (I) ([3]; participant B, after 90 min): 2 µU/mL | blood glucose level (G) ([3]; participant B, after 120 min): 150 mg/dL | blood insulin level (I) ([3]; participant B, after 120 min): 3.4 µU/mL | blood glucose level (G) ([3]; participant B, after 180 min): 146 mg/dL | blood insulin level (I) ([3]; participant B, after 180 min): 2.4 µU/mL | blood glucose level (G) ([3]; participant C, after 0 min): 90 mg/dL | blood insulin level (I) ([3]; participant C, after 0 min): 4.5 µU/mL | blood glucose level (G) ([3]; participant C, after 30 min): 90 mg/dL | blood insulin level (I) ([3]; participant C, after 30 min): 4.1 µU/mL | blood glucose level (G) ([3]; participant C, after 60 min): 88 mg/dL | blood insulin level (I) ([3]; participant C, after 60 min): 3.9 µU/mL | blood glucose level (G) ([3]; participant C, after 90 min): 86 mg/dL | blood insulin level (I) ([3]; participant C, after 90 min): 4.9 µU/mL | blood glucose level (G) ([3]; participant C, after 120 min): 86 mg/dL | blood insulin level (I) ([3]; participant C, after 120 min): 4 µU/mL | blood glucose level (G) ([3]; participant C, after 180 min): 81 mg/dL | blood insulin level (I) ([3]; participant C, after 180 min): 4 µU/mL
